# Where two headings read alike, the source gives them in different places.
# Tests used:
# rat mGlu2 receptor = target: T1, rat mGlu2 receptor (Rattus norvegicus, UniProt P31421); test: [3H]-LY354740 binding on mGlu2 transfected CHO cell membranes
# T1 construct: expressed in transfected cells; vector pcD1mGR2
# Description: [^3H]-LY354740 Binding on mGlu2 Transfected CHO Cell Membranes
# Transfection and Cell Culture
# The cells were maintained in Dulbecco's Modified Eagle medium with reduced L-glutamine (2 mM final concentration) and 10% dialysed foetal calf serum from Gibco BRL (Basel, Switzerland).
# Cells, cultured as above, were harvested and washed three times with cold PBS and frozen at −80° C. The pellet was resuspended in cold 20 mM HEPES-NaOH buffer containing 10 mM EDTA (pH 7.4), and homogenised with a polytron (Kinematica, AG, Littau, Switzerland) for 10 s at 10 000 rpm. After centrifugation for 30 min. at 4° C., the pellet was washed once with the same buffer, and once with cold 20 mM HEPES-NaOH buffer containing 0.1 mM EDTA, (pH 7.4). Protein content was measured using the Pierce method (Socochim, Lausanne, Switzerland) using bovine serum albumin as standard.
# After thawing, the membranes were resuspended in cold 50 mM Tris-HCl buffer containing 2 mM MgCl2 and 2 mM CaCl2, (pH 7) (binding buffer). The final concentration of the membranes in the assays was 25 μg protein/ml. Inhibition experiments were performed with membranes incubated with 10 nM [^3H]-LY354740 at room temperature, for 1 hour, in presence of various concentrations of the compound to be tested. Following the incubations, membranes were filtered onto Whatmann GF/C glass fiber filters and washed 5 times with cold binding buffer. Non specific binding was measured in the presence of 10 μM DCG IV. After transfer of the filters into plastic vials containing 10 ml of Ultima-gold scintillation fluid (Packard, Zürich, Switzerland), the radioactivity was measured by liquid scintillation in a Tri-Carb 2500 TR counter (Packard, Zürich, Switzerland).
# The inhibition curves were fitted with a four parameter logistic equation giving IC50 values, and Hill coefficients.
# [1] = inhibition of 10 nM [3H]-LY354740 binding, mGlu2 transfected CHO cell membranes, room temperature, 1 hour, read-out: Ki mGlu2
# T1 sequence (P31421 19-872): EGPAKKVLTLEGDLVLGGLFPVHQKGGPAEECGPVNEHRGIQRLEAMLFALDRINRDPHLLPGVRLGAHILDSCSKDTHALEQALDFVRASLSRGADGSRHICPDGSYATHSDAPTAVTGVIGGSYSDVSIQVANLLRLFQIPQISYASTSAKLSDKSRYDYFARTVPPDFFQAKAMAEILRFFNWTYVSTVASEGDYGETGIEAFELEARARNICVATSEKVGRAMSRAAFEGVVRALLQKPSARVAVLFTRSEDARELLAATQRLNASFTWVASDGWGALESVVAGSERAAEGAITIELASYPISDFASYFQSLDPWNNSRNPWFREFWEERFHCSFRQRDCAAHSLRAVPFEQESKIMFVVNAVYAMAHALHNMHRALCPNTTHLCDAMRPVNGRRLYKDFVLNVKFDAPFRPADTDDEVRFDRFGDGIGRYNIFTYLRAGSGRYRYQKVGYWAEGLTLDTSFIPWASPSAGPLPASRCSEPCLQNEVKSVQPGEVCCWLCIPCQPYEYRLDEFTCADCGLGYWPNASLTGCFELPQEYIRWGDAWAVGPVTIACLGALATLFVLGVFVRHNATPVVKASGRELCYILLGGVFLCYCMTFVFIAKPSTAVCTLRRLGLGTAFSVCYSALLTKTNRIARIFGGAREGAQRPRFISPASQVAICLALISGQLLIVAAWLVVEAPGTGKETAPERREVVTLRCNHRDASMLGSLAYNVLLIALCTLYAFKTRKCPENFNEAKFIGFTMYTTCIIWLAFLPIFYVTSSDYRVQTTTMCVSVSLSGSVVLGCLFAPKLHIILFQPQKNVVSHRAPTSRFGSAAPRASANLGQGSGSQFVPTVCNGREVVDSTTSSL
Compound,Ki (rat mGlu2 receptor; [1]),melting point,Ki (rat mGlu2 receptor)
"Cc1cc(C2CC2)ncc1-c1cccc(C2=Nc3cc(C)c(C(F)(F)F)cc3NC(=O)C2)c1 [Example 246, 4-[3-(6-Cyclopropyl-4-methyl-pyridin-3-yl)-phenyl]-7-methyl-8-trifluoromethyl-1,3-dihydro-benzo[b][1,4]diazepin-2-one]",16.9 nM,195 °C,–
"Cc1nccc(-c2cccc(C3=Nc4cc(N(C)C)c(C(F)(F)F)cc4NC(=O)C3)c2)n1 [Example 303, 7-Dimethylamino-4-[3-(2-methyl-pyrimidin-4-yl)-phenyl]-8-trifluoromethyl-1,3-dihydro-benzo[b][1,4]diazepin-2-one]",45 nM,211 to 212 °C,–
"Cc1cc(-c2cccc(C3=Nc4cc(C)c(C(F)(F)F)cc4NC(=O)C3)c2)nc(NCCO)n1 [Example 322, 4-{3-[2-(2-Hydroxy-ethylamino)-6-methyl-pyrimidin-4-yl]-phenyl}-7-methyl-8-trifluoromethyl-1,3-dihydro-benzo[b][1,4]diazepin-2-one]",4 nM,228 to 230 °C,–
"COCCNc1nc(C)cc(-c2cccc(C3=Nc4cc(N(C)C)c(C(F)(F)F)cc4NC(=O)C3)c2)n1 [Example 326, 7-Dimethylamino-4-{3-[2-(2-methoxy-ethylamino)-6-methyl-pyrimidin-4-yl]-phenyl}-8-trifluoromethyl-1,3-dihydro-benzo[b][1,4]diazepin-2-one]",8 nM,200 to 203 °C,–
"Cc1cc(-c2cccc(C3=Nc4cc(C)c(Cl)cc4NC(=O)C3)c2)nc(N2CCOCC2)n1 [Example 327, 8-Chloro-7-methyl-4-[3-(6-methyl-2-morpholin-4-yl-pyrimidin-4-yl)-phenyl]-1,3-dihydro-benzo[b][1,4]diazepin-2-one]",12 nM,252 to 256 °C,–
"O=C1CC(c2cccc(-c3ccc[n+]([O-])c3)c2)=Nc2cc(OCC(F)(F)F)c(C(F)(F)F)cc2N1 [Example 357, 4-[3-(1-Oxy-pyridin-3-yl)-phenyl]-7-(2,2,2-trifluoro-ethoxy)-8-trifluoromethyl-1,3-dihydro-benzo[b][1,4]diazepin-2-one]",6.1 nM,226 °C,–
"CCOc1cc2c(cc1C(F)(F)F)NC(=O)CC(c1cccc(-c3cc[n+]([O-])c(C)c3)c1)=N2 [Example 359, 7-Ethoxy-4-[3-(2-methyl-1-oxy-pyridin-4-yl)-phenyl]-8-trifluoromethyl-1,3-dihydro-benzo[b][1,4]diazepin-2-one]",26.5 nM,227 °C,–
"Cc1cc(-c2cccc(C3=Nc4cc(Cl)c(Cl)cc4NC(=O)C3)c2)cc(C)[n+]1[O-] [Example 376, 7,8-Dichloro-4-[3-(2,6-dimethyl-1-oxy-pyridin-4-yl)-phenyl]-1,3-dihydro-benzo[b][1,4]diazepin-2-one]",16.5 nM,225 °C,–
"Cc1cc2c(cc1C(F)(F)F)NC(=O)CC(c1cccc(-c3ccnc(N4CCOCC4)c3)c1)=N2 [Example 387, 7-Methyl-4-[3-(2-morpholin-4-yl-pyridin-4-yl)-phenyl]-8-trifluoromethyl-1,3-dihydro-benzo[b][1,4]diazepin-2-one]",–,240 to 242 °C,14.5 nM
"O=C1CC(c2cccc(-c3ccnc(N4CCCC4)c3)c2)=Nc2cc(OCC(F)(F)F)c(C(F)(F)F)cc2N1 [Example 391, 4-[3-(2-Pyrrolidin-1-yl-pyridin-4-yl)-phenyl]-7-(2,2,2-trifluoro-ethoxy)-8-trifluoromethyl-1,3-dihydro-benzo[b][1,4]diazepin-2-one]",7.9 nM,165 °C,–
"Cc1cc(-c2cccc(C3=Nc4cc(N(C)CC(C)C)c(Cl)cc4NC(=O)C3)c2)cc(C)n1 [Example 410, 8-Chloro-4-[3-(2,6-dimethyl-pyridin-4-yl)-phenyl]-7-(isobutyl-methyl-amino)-1,3-dihydro-benzo[b][1,4]diazepin-2-one]",3.25 nM,229 °C,–
